The values that follow come from ChEMBL document CHEMBL1143776, “Thioimidoyl furanosides as first inhibitors of the alpha-L-arabinofuranosidase AbfD3” (Bioorg Med Chem Lett, 2007).

As usually defined, the IC50 is the concentration that inhibits the measured activity by half. Low readings indicate greater potency in that assay, high ones weaker potency in that assay.

A short description of the assay: Inhibition of AbfD3.

`OC[C@@H]1O[C@@H](Sc2nccs2)[C@H](O)[C@H]1O` came in with an IC50 of less than 100 µM.
For `OC[C@@H]1O[C@@H](Sc2ncccn2)[C@H](O)[C@H]1O` the value was less than 100 µM.
For `OC[C@@H]1O[C@@H](Sc2nc3ccccc3s2)[C@H](O)[C@H]1O` the value was less than 100 µM.
`OC[C@@H]1O[C@@H](Sc2ccccn2)[C@H](O)[C@H]1O`: the IC50 was less than 100 µM.
The compound `OC[C@@H]1O[C@@H](Sc2nc3ccccc3[nH]2)[C@H](O)[C@H]1O` had an IC50 of less than 100 µM.
